{"source": "ChEMBL document CHEMBL1150697", "about": "“Isolation and structure determination of an antimicrobial ester from a marine sediment-derived bacterium” (2003)", "assay_type_in_all_cases": "functional", "conditions_in_all_cases": "read-out: IZ", "key": {"Priestia megaterium": {"tested_on": "Priestia megaterium", "assay": "Antimicrobial activity against Bacillus megaterium at 1000 ug/mL after 24 hrs by paper disk diffusion method"}, "Micrococcus luteus": {"tested_on": "Micrococcus luteus", "assay": "Antimicrobial activity against Micrococcus luteus at 1000 ug/mL after 24 hrs by paper disk diffusion method"}, "Klebsiella pneumoniae": {"tested_on": "Klebsiella pneumoniae", "assay": "Antimicrobial activity against sKlebsiella pneumoniae at 1000 ug/mL after 24 hrs by paper disk diffusion method"}, "Staphylococcus aureus": {"tested_on": "Staphylococcus aureus", "assay": "Antimicrobial activity against Staphylococcus aureus at 1000 ug/mL after 24 hrs by paper disk diffusion method"}, "Alcaligenes faecalis": {"tested_on": "Alcaligenes faecalis", "assay": "Antimicrobial activity against Alcaligenes faecalis at 1000 ug/mL after 24 hrs by paper disk diffusion method"}, "Escherichia coli": {"tested_on": "Escherichia coli", "assay": "Antimicrobial activity against Escherichia coli at 1000 ug/mL after 24 hrs by paper disk diffusion method"}, "Saccharomyces cerevisiae": {"tested_on": "Saccharomyces cerevisiae", "assay": "Antimicrobial activity against Saccharomyces cerevisiae at 1000 ug/mL after 24 hrs by paper disk diffusion method"}}, "data": [{"molecule": "CCC(O)CC1CCC(C(C)C(=O)OC(C)CC2CCC(C(C)C(=O)O)O2)O1", "note": "(configuration not stated) [BONACTIN]", "values": [{"measurement": "zone of inhibition at 1000 µg/mL", "setting": "Priestia megaterium", "result": 8, "unit": "mm"}, {"measurement": "zone of inhibition at 1000 µg/mL", "setting": "Micrococcus luteus", "result": 8, "unit": "mm"}, {"measurement": "zone of inhibition at 1000 µg/mL", "setting": "Klebsiella pneumoniae", "result": 8.5, "unit": "mm"}, {"measurement": "zone of inhibition at 1000 µg/mL", "setting": "Staphylococcus aureus", "result": 7, "unit": "mm"}, {"measurement": "zone of inhibition at 1000 µg/mL", "setting": "Alcaligenes faecalis", "result": 10, "unit": "mm"}, {"measurement": "zone of inhibition at 1000 µg/mL", "setting": "Escherichia coli", "result": 9, "unit": "mm"}, {"measurement": "zone of inhibition at 1000 µg/mL", "setting": "Saccharomyces cerevisiae", "result": 7.5, "unit": "mm"}]}]}
